# Test system: mock transformed CHO cells
# Test: cAMP assay in mock transformed CHO cells
# Assay type: cell-based
# Settings: CHO transformants with the plasmid vector without cDNA insert; forskolin 10 μM, porcine galanin 0.1 μM; 37° C. for 30 min
# Method: CHO-MGR20 or mock transformed CHO cells were incubated with forskolin (10 μM) and porcine galanin (0.1 μM) at 37° C. for 30 min. The reaction was terminated by extracting the cells with ice-cold ethanol. The amounts of intracellular cAMP were quantitated by EIA. Values indicated are mean±S.E.M. in triplicate assays.
# The CHO cells were seeded at 2.0×10^5 cells/well in 24-well tissue culture plates and cultured for two days. The cells were washed two times with HBSS containing 0.1% BSA and 1 mM IBMX, and then the same buffer with experimental agents were added to the wells. After incubation at 37° C. for 30 min, the media were discarded and intracellular cAMP was extracted with ice-cold ethanol. The aliquots of extracts were evaporated and the amounts of cAMP were quantitated by a cAMP EIA system (Amersham) as described by the manufacturer.
# Galanin receptor-mediated inhibition of forskolin-stimulated cAMP production was observed. CHO-MGR20 or mock transformed CHO cells were incubated with forskolin (10 μM) and porcine galanin (0.1 μM) at 37° C. for 30 min. The reaction was terminated by extracting the cells with ice-cold ethanol. The amounts of intracellular cAMP were quantitated by EIA. Values indicated are mean±S.E.M. in triplicate assays.
substance,measurement,value
Porcine Galanin,forskolin-stimulated cAMP accumulation,not inhibited
